Results: US20190117616A1, “METHOD FOR REGULATING KDM4A, KDM4B, AND KDM4C ACTIVITY” (National Tsing Hua University, priority 2017, published 2019)

How the values were obtained:
[1] = literature; cited from earlier work
JMJD2E/KDM4E = target: T1, JMJD2E/KDM4E (Homo sapiens, UniProt B2RXH2); settings: in vitro, literature; cited from earlier work
T1 sequence (B2RXH2 1-506): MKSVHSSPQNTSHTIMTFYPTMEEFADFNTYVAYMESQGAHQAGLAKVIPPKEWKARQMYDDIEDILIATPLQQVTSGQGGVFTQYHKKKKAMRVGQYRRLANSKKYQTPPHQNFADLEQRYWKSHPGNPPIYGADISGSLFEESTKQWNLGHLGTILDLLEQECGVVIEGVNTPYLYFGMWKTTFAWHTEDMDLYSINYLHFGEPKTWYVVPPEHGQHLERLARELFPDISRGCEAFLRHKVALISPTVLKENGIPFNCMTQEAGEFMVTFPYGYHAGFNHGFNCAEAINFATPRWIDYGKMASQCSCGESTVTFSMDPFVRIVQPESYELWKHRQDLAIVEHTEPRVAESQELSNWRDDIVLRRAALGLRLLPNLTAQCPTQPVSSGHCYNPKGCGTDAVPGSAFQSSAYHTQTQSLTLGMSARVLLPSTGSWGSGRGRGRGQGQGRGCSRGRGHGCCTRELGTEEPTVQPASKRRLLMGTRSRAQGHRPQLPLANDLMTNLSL

herpes virus = settings: literature; cited from earlier work
KDM4B = target: T2, KDM4B (Homo sapiens, UniProt O94953); assay: KDM4B enzymatic inhibition (residual activity, IC50, kinetics); assay type: biochemical; settings: for Inhibitory effects of Myricetin analogues against KDM4B activity: Table 1 (not given), 100 μM compounds
T2 sequence (O94953 1-1096): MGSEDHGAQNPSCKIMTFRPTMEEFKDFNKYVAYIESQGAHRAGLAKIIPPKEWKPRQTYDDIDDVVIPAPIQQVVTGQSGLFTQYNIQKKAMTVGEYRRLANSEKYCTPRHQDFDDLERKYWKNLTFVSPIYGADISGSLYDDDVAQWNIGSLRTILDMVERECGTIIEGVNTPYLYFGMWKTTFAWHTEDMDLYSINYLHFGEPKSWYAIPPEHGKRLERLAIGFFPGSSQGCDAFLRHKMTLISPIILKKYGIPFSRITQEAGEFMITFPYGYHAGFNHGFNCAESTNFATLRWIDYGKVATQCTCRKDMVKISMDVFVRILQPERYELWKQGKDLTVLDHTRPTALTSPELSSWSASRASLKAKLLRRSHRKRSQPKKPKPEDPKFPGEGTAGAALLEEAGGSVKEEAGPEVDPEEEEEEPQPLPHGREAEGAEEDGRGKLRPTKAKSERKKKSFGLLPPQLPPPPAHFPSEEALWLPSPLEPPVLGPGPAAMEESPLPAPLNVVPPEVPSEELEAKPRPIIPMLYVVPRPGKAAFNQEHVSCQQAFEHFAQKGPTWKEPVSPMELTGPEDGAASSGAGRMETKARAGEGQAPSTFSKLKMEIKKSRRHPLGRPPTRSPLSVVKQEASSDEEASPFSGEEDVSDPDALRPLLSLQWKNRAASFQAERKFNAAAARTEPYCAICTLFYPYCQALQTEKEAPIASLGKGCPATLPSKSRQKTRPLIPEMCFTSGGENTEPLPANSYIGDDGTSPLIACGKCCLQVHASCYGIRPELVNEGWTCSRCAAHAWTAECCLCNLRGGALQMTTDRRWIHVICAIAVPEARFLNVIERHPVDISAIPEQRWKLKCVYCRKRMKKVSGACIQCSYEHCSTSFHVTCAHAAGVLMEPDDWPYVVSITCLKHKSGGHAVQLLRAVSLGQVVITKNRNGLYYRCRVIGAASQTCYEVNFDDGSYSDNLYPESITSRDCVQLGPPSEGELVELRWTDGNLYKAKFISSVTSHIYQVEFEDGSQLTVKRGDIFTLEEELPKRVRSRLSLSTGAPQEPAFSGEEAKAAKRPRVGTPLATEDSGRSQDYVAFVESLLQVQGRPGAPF

C4-2B xenografts [2] = assay: Ki-67 and CD31 immunohistochemistry of xenograft tumor sections; assay type: in vivo, nude mice; settings: FIG. 7B
Procedure: FIG. 7B: Ki-67 and CD31 immunohistochemistry staining of the tumor sections isolated from the xenografts.
The endothelial cell-specific marker CD31 in xenografts was also determined.

C4-2B xenografts [3] = assay: C4-2B xenograft tumor growth in nude mice; assay type: in vivo; settings: C4-2B xenograft model
KDM4C [4] = target: T3, KDM4C (Homo sapiens, UniProt Q9H3R0); assay: H3 demethylation by bacteria-expressed KDM4C, western blot; assay type: biochemical; settings: 100 μM inhibitor, 10 μM enzyme, 5 μM H3, 37° C., 30 min
T3 sequence (Q9H3R0 1-1056): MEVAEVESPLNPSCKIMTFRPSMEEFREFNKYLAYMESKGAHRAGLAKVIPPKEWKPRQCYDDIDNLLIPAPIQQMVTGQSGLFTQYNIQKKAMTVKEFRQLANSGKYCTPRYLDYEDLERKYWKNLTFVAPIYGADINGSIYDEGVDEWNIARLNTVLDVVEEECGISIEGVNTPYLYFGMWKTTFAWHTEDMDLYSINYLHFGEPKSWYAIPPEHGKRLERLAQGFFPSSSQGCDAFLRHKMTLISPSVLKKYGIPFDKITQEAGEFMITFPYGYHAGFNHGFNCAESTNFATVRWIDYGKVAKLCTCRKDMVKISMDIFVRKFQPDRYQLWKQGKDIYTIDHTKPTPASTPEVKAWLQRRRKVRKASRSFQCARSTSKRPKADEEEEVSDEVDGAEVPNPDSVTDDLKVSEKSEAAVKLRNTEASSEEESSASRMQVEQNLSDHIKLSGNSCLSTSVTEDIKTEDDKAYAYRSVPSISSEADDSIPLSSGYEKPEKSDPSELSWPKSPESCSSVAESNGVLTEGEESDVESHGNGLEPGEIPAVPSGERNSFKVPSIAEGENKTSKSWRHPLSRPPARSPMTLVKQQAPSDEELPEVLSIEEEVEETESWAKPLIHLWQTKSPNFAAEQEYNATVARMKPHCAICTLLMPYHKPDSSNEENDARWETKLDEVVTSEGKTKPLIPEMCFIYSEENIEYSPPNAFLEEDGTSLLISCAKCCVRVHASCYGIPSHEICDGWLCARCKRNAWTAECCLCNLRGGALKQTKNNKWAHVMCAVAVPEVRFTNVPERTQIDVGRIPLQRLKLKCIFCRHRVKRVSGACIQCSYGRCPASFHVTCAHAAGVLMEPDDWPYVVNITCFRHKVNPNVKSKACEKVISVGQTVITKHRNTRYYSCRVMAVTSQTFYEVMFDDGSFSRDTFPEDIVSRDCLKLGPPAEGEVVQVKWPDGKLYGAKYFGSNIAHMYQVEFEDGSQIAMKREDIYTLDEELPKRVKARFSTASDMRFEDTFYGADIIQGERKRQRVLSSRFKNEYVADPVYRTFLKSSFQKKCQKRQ

C4-2B cells [5] = assay: MTT cell proliferation assay, C4-2B; assay type: cell-based; settings: different concentrations over 4 days
From the text: (§1) Whether Myricetin blocked cell growth of AR+ cells was next evaluated.

PZ-HPV-7 cells = assay: MTT assay, immortalized normal PZ-HPV-7; assay type: cell-based; settings: different concentrations over 4 days
From the text: as §1

LNCaP cells = assay: MTT cell growth assay, LNCaP; assay type: cell-based; settings: different concentrations over 4 days
From the text: as §1

KDM4C [6] = target: T3, KDM4C; settings: toward α-ketoglutarate, FIG. 2A
C4-2B cells [7] = assay: Cell viability of C4-2B, PLGA-Myricetin versus free Myricetin; settings: read-out: IC50, cell viability (cytotoxicity) of C4-2B cells
[8] = test system: H3K9me3/H3K36me3 in C4-2B cells; assay: H3K9me3 and H3K36me3 levels in treated C4-2B cells, western blot; assay type: cell-based; settings: treated for two days, cell lysates
From the text: FIG. 5B: H3K9me3 and H3K36me3 levels in Myricetin-treated C4-2B cells for two days. The H3K9me3 and H3K36me3 signals are detected in cell lysates by western blot analysis.
as §1

C4-2B cells [9] = test system: C4-2B cells

For `CN(C)CCCNC(=O)c1ccc(-c2cc(O)c3ncccc3c2)cc1` [ML324], the Cell permeability [1] is given as “good”, the “In vitro ADME properties” value [1] is given as “good” and the “Inhibitory activity toward JMJD2E/KDM4E” value (JMJD2E/KDM4E) is given as “submicromolar”. The “KDM4A-dependent herpes virus-mediated replication in infected cells” value (herpes virus) was “blocked”.

In the case of `O=c1c(O)c(-c2ccc(O)c(O)c2)oc2cc(O)cc(O)c12` [Quercetin], the “Inhibitory effects of Myricetin analogues against KDM4B activity” value (KDM4B) is reported as “significant inhibitory effects”.

With `O=c1c(O)c(-c2ccc(O)cc2)oc2cc(O)cc(O)c12` [Kaempferol] the “Inhibitory effects of Myricetin analogues against KDM4B activity” value (KDM4B) was “significant inhibitory effects”.

In the case of `O=c1c(O)c(-c2ccc(O)c(O)c2)oc2c(O[C@@H]3O[C@H](CO)[C@@H](O)[C@H](O)[C@H]3O)c(O)cc(O)c12` [Gossypin], the “Inhibitory effects of Myricetin analogues against KDM4B activity” value (KDM4B) is reported as “significant inhibitory effects”.

In the case of `COc1cc(-c2oc3cc(O)cc(O)c3c(=O)c2O)ccc1O` [Isorhamnetin], the “Inhibitory effects of Myricetin analogues against KDM4B activity” value (KDM4B) is reported as “significant inhibitory effects”.

In the case of `CNC(=O)c1ccc(N2C(=S)N(c3ccc(C#N)c(C(F)(F)F)c3)C(=O)C2(C)C)cc1F` [enzalutamide], the “Endothelial cell-specific marker CD31 in xenografts” value (C4-2B xenografts [2]) is reported as “significantly higher level of CD31 was seen in the vehicle group”, the “Expression of proliferation marker Ki-67 in xenografts” value (C4-2B xenografts [2]) is reported as “significantly lower expression” and the “Antitumor activity compared with the vehicle control group” value (C4-2B xenografts [3]) is reported as “significant antitumor activity”.

With `O=c1c(O)c(-c2cc(O)c(O)c(O)c2)oc2cc(O)cc(O)c12` [Myricetin] the “Demethylation of H3K9me3 by KDM4C” value (KDM4C [4]) was “significantly reduced such an activity”, the IC50 (KDM4B) was 1300 nM and the “Enzymatic inhibitory kinetics, mode (KDM4B)” value (KDM4B; toward α-ketoglutarate, FIG. 2A) was “competitive inhibition mode”. The “Cell proliferation of C4-2B” value (C4-2B cells [5]) was “blocked”, the “Effect on immortalized normal PZ-HPV-7 line” value (PZ-HPV-7 cells) was “essentially no effect” and the “Cell growth of LNCaP” value (LNCaP cells) was “significantly reduced level of cell growth”. For the same compound, the “Enzymatic inhibitory kinetics, mode (KDM4C)” value (KDM4C [6]) was “competitive mode”, the “Antitumor activity compared with the vehicle control group” value (C4-2B xenografts [3]) was “significant antitumor activity” and the IC50 (C4-2B cells [7]) was 38.3 µM. The “H3K9me3 level in C4-2B cells” value [8] was “dose-dependent increased level”, the “H3K36me3 signal in C4-2B cells” value [8] was “relatively comparable signal” and the “Cytotoxic effect alone, compared with enzalutamide alone” value (C4-2B cells [9]) was “better cytotoxic effect”.
